Test [1] deals with Avi-tagged FL MALT-1 (Homo sapiens (Human), UniProt Q9UDY8). Kind of test: MALT-1 Fluorogenic Peptide Cleavage Assay (MALT1 inhibition assay). Type of test: biochemical. As to conditions: Ac-LRSR-AMC peptide substrate, 30 min pre-incubation, 90 min reaction at room temperature. The procedure, abridged: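 Full-length Avi-tagged human MALT-1 (40 nM working stock) pre-incubated 30 min at RT with compound in 25 mM HEPES pH 6.89, 660 mM sodium citrate, 1 mM TCEP, […], 0.05% CHAPS, 2% DMSO. Ac-LRSR-AMC added at Km (50 μM working stock) or 10×Km (280 μM working stock); 90 min at RT, AMC fluorescence (ex 342/em 441 nm), IC50 from % inhibition curves.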
Chain of Avi-tagged FL MALT-1 (Q9UDY8 whole entry): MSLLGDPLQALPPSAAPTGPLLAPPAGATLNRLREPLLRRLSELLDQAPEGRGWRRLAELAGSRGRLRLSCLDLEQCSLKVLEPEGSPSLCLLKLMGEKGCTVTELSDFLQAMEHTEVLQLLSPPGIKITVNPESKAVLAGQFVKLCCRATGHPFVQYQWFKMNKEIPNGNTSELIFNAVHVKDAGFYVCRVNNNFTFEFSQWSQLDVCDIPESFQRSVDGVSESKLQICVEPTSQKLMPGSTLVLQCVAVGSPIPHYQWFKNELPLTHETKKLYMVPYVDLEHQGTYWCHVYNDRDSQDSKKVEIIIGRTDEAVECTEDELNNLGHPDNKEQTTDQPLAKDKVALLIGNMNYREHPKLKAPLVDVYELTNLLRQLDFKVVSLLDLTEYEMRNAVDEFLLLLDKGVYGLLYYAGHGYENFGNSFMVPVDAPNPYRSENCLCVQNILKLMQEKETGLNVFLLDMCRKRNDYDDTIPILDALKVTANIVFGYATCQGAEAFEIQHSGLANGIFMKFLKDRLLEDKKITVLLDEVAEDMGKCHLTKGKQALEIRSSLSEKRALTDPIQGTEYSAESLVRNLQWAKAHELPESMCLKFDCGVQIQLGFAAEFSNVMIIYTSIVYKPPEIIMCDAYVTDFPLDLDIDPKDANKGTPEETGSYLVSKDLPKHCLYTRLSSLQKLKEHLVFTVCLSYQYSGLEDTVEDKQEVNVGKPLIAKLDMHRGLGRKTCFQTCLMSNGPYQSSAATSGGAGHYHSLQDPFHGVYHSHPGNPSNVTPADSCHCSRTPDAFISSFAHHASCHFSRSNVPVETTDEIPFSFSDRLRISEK

Test [2] has as its system NF-kB reporter in Jurkat cells. In words: NF-kB reporter assay in Jurkat cells stimulated with aCD3/aCD28/PMA. The following applies: Homo sapiens, read-out: NF-kB Reporter Assay IC50. The test is classed as cell-based. The procedure, abridged: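 Jurkat cells (25,000/well, serum-free RPMI) were pre-incubated 1 h at 37° C with serially diluted compound, then stimulated 4 h with aCD3/aCD28/PMA at final […]. NF-kB reporter activity was read by One-Glo luminescence; IC50 values reported.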

Setting [3] is: Jurkat cells, 1 hr compound pre-incubation, aCD3/aCD28/PMA stimulation 4 hr, One-Glo readout.

From US20240150321A1, “PYRAZOLYLSULFONAMIDE COMPOUNDS AND THEIR USE IN THERAPY” (HOTSPOT THERAPEUTICS, INC., priority 2022, published 2024) come the findings set out here.

Read-outs that look alike come from different tables or passages of the source.

As to `Cn1ncc2cccc(NS(=O)(=O)c3cnn(-c4cnn5c4OCCC5)c3)c21` [Compound I-465, N-(1-methylindazol-7-yl)-1-{5H,6H,7H-pyrazolo[3,2-b][1,3]oxazin-3-yl}pyrazole-4-sulfonamide], the results for the IC50 in test [1] and in test [2] (setting [3]) were more than 2500 nM and 1000 to 2500 nM, respectively.

For `COc1ccc2cnn(C)c2c1NS(=O)(=O)c1cnn(-c2cc(N3CC[C@H](C)C3)ccn2)c1` [Compound I-402], the figures for the IC50 in test [1] and in test [2] (setting [3]) were more than 2500 nM and less than 400 nM, respectively.

In the case of `Cn1ncc2cccc(NS(=O)(=O)c3cnn(-c4cc(N5CCOC5=O)ccn4)c3)c21` [Compound I-282, N-(1-methyl-1H-indazol-7-yl)-1-(4-(2-oxooxazolidin-3-yl)pyridin-2-yl)-1H-pyrazole-4-sulfonamide], the half-maximal inhibitory concentration (IC50) was more than 2500 nM in test [1] and less than 400 nM in test [2] (setting [3]).

For `COC[C@@H](OC)c1ccnc(-n2cc(S(=O)(=O)Nc3cccc4cnn(C)c34)cn2)c1` [Compound I-341], the IC50 in test [1] is more than 2500 nM; in test [2] (setting [3]), less than 400 nM.

With `COc1ccc2cnn(C)c2c1NS(=O)(=O)c1cnn(-c2ccnc(C(F)(F)F)c2)c1` [Compound I-4, N-(6-Methoxy-1-Methyl-1H-Indazol-7-yl)-1-(2-(Trifluoromethyl)Pyridin-4-yl)-1H-Pyrazole-4-Sulfonamide], the IC50 in test [1] is not above 400 nM; in test [2] (setting [3]), less than 400 nM.

Regarding `[2H]c1cnc(-n2cc(S(=O)(=O)Nc3cccc4cnn(C([2H])([2H])[2H])c34)cn2)cc1C(F)(F)F` [Compound I-338, N-(1-(methyl-d3)-1H-indazol-7-yl)-1-(4-(trifluoromethyl)pyridin-2-yl-5-d)-1H-pyrazole-4-sulfonamide], the IC50 in test [1] is not above 400 nM; in test [2] (setting [3]), less than 400 nM.

Take `CN1CCC[C@@H](n2cc(S(=O)(=O)Nc3cccc4cnn(C)c34)cn2)C1` [Compound I-308, N-(1-methylindazol-7-yl)-1-[(3R)-1-methylpiperidin-3-yl]pyrazole-4-sulfonamide]: the IC50 in test [1] and in test [2] (setting [3]) was more than 2500 nM throughout.

Take `COc1ncc2cnn(C)c2c1NS(=O)(=O)c1cnn(-c2cc(C(C)(C)OC)ccn2)c1` [Compound I-261, N-(6-Methoxy-1-Methyl-1H-Pyrazolo[4,3-C]Pyridin-7-yl)-1-(4-(2-Methoxypropan-2-yl)Pyridin-2-yl)-1H-Pyrazole-4-Sulfonamide]: the IC50 is not above 400 nM in test [1] and less than 400 nM in test [2] (setting [3]).

On to `Cn1ncc2ccc(OC(F)(F)F)c(NS(=O)(=O)c3cnn(-c4cc(C(F)(F)F)ccn4)c3)c21` [Compound I-327, N-[1-methyl-6-(trifluoromethoxy)indazol-7-yl]-1-[4-(trifluoromethyl)pyridin-2-yl]pyrazole-4-sulfonamide], for which the IC50 in test [1] is not above 400 nM; in test [2] (Jurkat) it was less than 400 nM.

For the molecule `CC[C@@](C)(OC)c1ccnc(-n2cc(S(=O)(=O)Nc3cccc4cnn(C)c34)cn2)c1` (stereo in doubt) [Compound I-314, 1-(4-(2-methoxybutan-2-yl)pyridin-2-yl)-N-(1-methyl-1H-indazol-7-yl)-1H-pyrazole-4-sulfonamide], the concentration for half-maximal inhibition (IC50) in test [1] was more than 2500 nM; in test [2] (setting [3]), less than 400 nM.

In the case of `Cn1ncc2cccc(NS(=O)(=O)c3cnn(-c4cc(C5CCOC5)ccn4)c3)c21` (centres unmarked) [Compound I-118, N-(1-methyl-1H-indazol-7-yl)-1-(4-(tetrahydrofuran-3-yl)pyridin-2-yl)-1H-pyrazole-4-sulfonamide], the concentration for half-maximal inhibition (IC50) in test [1] is more than 2500 nM; in test [2] (setting [3]), less than 400 nM.

For the molecule `COC(C)(C)c1ccnc(-n2cc(S(=O)(=O)Nc3cccc4cnn(C)c34)cn2)c1` [Compound I-114, 1-(4-(2-Methoxypropan-2-yl)Pyridin-2-yl)-N-(1-Methyl-1H-Indazol-7-yl)-1H-Pyrazole-4-Sulfonamide], the results for the concentration for half-maximal inhibition (IC50) in test [1] and in test [2] (setting [3]) were more than 2500 nM and less than 400 nM, respectively.

Regarding `COc1ncc2cnn(C)c2c1NS(=O)(=O)c1cnn(-c2cc(N3CC[C@@H](C)C3)ccn2)c1` [Compound I-420], the IC50 in test [1] is more than 2500 nM; in test [2] (setting [3]), less than 400 nM.

For `O=S(=O)(Nc1cccc2cnn(C(F)F)c12)c1cnn(-c2cc(Cl)ccn2)c1` [Compound I-110, 1-(4-chloropyridin-2-yl)-N-[1-(difluoromethyl)indazol-7-yl]pyrazole-4-sulfonamide], the IC50 in test [1] and in test [2] (setting [3]) was more than 2500 nM in each case.

`CC[C@H](OC)c1ccnc(-n2cc(S(=O)(=O)Nc3c(OC)ccc4cnn(C)c34)cn2)c1` [Compound I-317, (S)—N-(6-Methoxy-1-Methyl-1H-Indazol-7-yl)-1-(4-(1-Methoxypropyl)Pyridin-2-yl)-1H-Pyrazole-4-Sulfonamide]: the 50% inhibitory concentration (IC50) in test [1] was not above 400 nM; in test [2] (setting [3]), less than 400 nM.

Consider `CCCc1ccc2cnn(C)c2c1NS(=O)(=O)c1cnn(-c2ccnc(C(F)(F)F)c2)c1` [Compound I-38, N-(1-Methyl-6-Propyl-1H-Indazol-7-yl)-1-(2-(Trifluoromethyl) Pyridin-4-yl)-1H-Pyrazole-4-Sulfonamide], for which the IC50 in test [1] is not above 400 nM; in test [2] (setting [3]), less than 400 nM.

As for `COc1ccc2nnn(C)c2c1NS(=O)(=O)c1cnn(-c2ccnc(C(F)(F)F)c2)c1` [Compound I-52], the 50% inhibitory concentration (IC50) in test [1] is more than 2500 nM; in test [2] (setting [3]), 1000 to 2500 nM.

With `CN1CC(c2ccnc(-n3cc(S(=O)(=O)Nc4cccc5cnn(C)c45)cn3)c2)C1` [Compound I-325], the IC50 in test [1] and in test [2] (setting [3]) was more than 2500 nM in each case.

Turning to `COc1ccc2cnn(C)c2c1NS(=O)(=O)c1cnn(-c2cc(N3CCC(C)(C)C3)ccn2)c1` [Compound I-434], the IC50 in test [1] is more than 2500 nM; in test [2] (setting [3]) it was less than 400 nM.

In the case of `CC(=O)N1CC(O)(c2ccnc(-n3cc(S(=O)(=O)Nc4cccc5cnn(C)c45)cn3)c2)C1` [Compound I-287], the IC50 in test [1] and in test [2] (setting [3]) was more than 2500 nM in each case.

For `COc1ncc2cnn(C)c2c1NS(=O)(=O)c1cnn(-c2ccnc(C(F)(F)F)c2)c1` [Compound I-87, N-(6-Methoxy-1-Methyl-1H-Pyrazolo[4,3-C]Pyridin-7-yl)-1-(2-(Trifluoromethyl)Pyridin-4-yl)-1H-Pyrazole-4-Sulfonamide], the IC50 in test [1] is not above 400 nM; in test [2] (setting [3]), less than 400 nM.

In the case of `Cn1ncc2cccc(NS(=O)(=O)c3cnn(-c4cc(C(C)(C)C#N)ccn4)c3)c21` [Compound I-382, 1-(4-(2-cyanopropan-2-yl)pyridin-2-yl)-N-(1-methyl-1H-indazol-7-yl)-1H-pyrazole-4-sulfonamide], the IC50 in test [1] was more than 2500 nM; in test [2] (setting [3]), less than 400 nM.

On to `Cn1ncc2cccc(NS(=O)(=O)c3cnn(-c4cc(C5(O)CCOCC5)ccn4)c3)c21` [Compound I-129, 1-(4-(4-hydroxytetrahydro-2H-pyran-4-yl)pyridin-2-yl)-N-(1-methyl-1H-indazol-7-yl)-1H-pyrazole-4-sulfonamide], for which the IC50 was more than 2500 nM in test [1] and 400 to 1000 nM in test [2] (setting [3]).

Regarding `CCC(O)c1ccnc(-n2cc(S(=O)(=O)Nc3c(OC)ccc4cnn(C)c34)cn2)c1` (single isomer, unassigned) [Compound I-281, 1-(4-(1-hydroxypropyl)pyridin-2-yl)-N-(6-methoxy-1-methyl-1H-indazol-7-yl)-1H-pyrazole-4-sulfonamide], the concentration for half-maximal inhibition (IC50) in test [1] was 400 to 1000 nM; in test [2] (setting [3]), less than 400 nM.

`COc1ccc2cnn(C)c2c1NS(=O)(=O)c1cnn(-c2cc(N3CCCCC3)ccn2)c1` [Compound I-372]: the IC50 in test [1] was 1000 to 2500 nM; in test [2] (setting [3]), less than 400 nM.

Turning to `COc1ccc2cnn(C)c2c1NS(=O)(=O)c1cnn(-c2cc(N3CC(C)C3)ccn2)c1` [Compound I-369], the IC50 was more than 2500 nM in test [1] and less than 400 nM in test [2] (setting [3]).

Turning to `Cn1ncc2cccc(NS(=O)(=O)c3cnn(-c4cc(C5(C#N)CCCC5)ccn4)c3)c21` [Compound I-448, 1-(4-(1-cyanocyclopentyl)pyridin-2-yl)-N-(1-methyl-1H-indazol-7-yl)-1H-pyrazole-4-sulfonamide], the 50% inhibitory concentration (IC50) was more than 2500 nM in test [1] and less than 400 nM in test [2] (setting [3]).

With `Cc1n[nH]c2cccc(NS(=O)(=O)c3cnn(-c4ccc(C(F)(F)F)cn4)c3)c12` [Compound I-45, N-(3-Methyl-1H-Indazol-4-yl)-1-(5-(Trifluoromethyl)Pyridin-2-yl)-1H-Pyrazole-4-Sulfonamide], the IC50 is more than 2500 nM in test [1] and less than 400 nM in test [2] (setting [3]).

Turning to `Cn1ncc2cccc(NS(=O)(=O)c3cnn(-c4cc(C5(F)CCOCC5)ccn4)c3)c21` [Compound I-130, 1-(4-(4-fluorotetrahydro-2H-pyran-4-yl)pyridin-2-yl)-N-(1-methyl-1H-indazol-7-yl)-1H-pyrazole-4-sulfonamide], the IC50 in test [1] was more than 2500 nM; in test [2] (setting [3]), less than 400 nM.

In the case of `COCC(COC)(OC)c1ccnc(-n2cc(S(=O)(=O)Nc3cccc4cnn(C)c34)cn2)c1` [Compound I-259, N-(1-methyl-1H-indazol-7-yl)-1-(4-(1,2,3-trimethoxypropan-2-yl)pyridin-2-yl)-1H-pyrazole-4-sulfonamide], the values for the half-maximal inhibitory concentration (IC50) in test [1] and in test [2] (setting [3]) were more than 2500 nM and 1000 to 2500 nM, respectively.

As to `COc1ccc2cnn(C)c2c1NS(=O)(=O)c1cnn(-c2cc(C(F)(F)F)ccn2)c1C` [Compound I-84, N-(6-Methoxy-1-Methyl-1H-Indazol-7-yl)-5-Methyl-1-(4-(Trifluoromethyl)Pyridin-2-yl)-1H-Pyrazole-4-Sulfonamide], the results for the half-inhibitory concentration (IC50) in test [1] and in test [2] (setting [3]) were not above 400 nM and less than 400 nM, respectively.
